Experimental data from patent US7192929B2, “Peptides effective in the treatment of tumors and other conditions requiring the removal or destruction of cells” (Nymox Corporation, priority 2001, dated 2007).
Ends that are not written are not given here.

Assays:
[1] = test system: prostate; test: Intraprostatic infusion in rats, histology of prostate gland; assay type: in vivo, rat; conditions: 300 μl of 1 mg/mL in PBS pH 7.4 (1.0 mg/kg), sacrificed after 72 hours
Experimental: Four rats were anesthetized with ether and given NTP peptide #7 by intraprostatic infusion. The injections consisted of 300 μl of NTP peptide #7 1 mg/mL in PBS pH 7.4. (1.0 mg/kg). Controls received injections of PBS alone or no injection. Rats were painlessly sacrificed after 72 hours. Prostate glands were dissected, fixed in 10% buffered formalin for 24 hours, embedded in paraffin, sectioned, and stained with H & E. For each animal the entire prostate gland was embedded and sectioned. All stained sections were examined histologically.
Normal rats were injected in the prostate as in the above Example 2, except they were injected with NTP peptide #17. Rats were painlessly sacrificed after 72 hours and their prostate glands were examined as in Example 2.

[2] = test system: muscle tissue, subcutaneous connective tissue, and dermis; assay type: in vivo, rat; conditions: for effect on tissue at sites of injection (histopathology): normal rats, skin, subcutaneous and skeletal muscle injection, in saline, 0.1–1 mg/mL, sacrificed at 24 hours
Experimental: Four normal rats were injected in the skin and subcutaneously, each in four different foci, and in extremity skeletal muscle, each in two different foci, with NTP peptide #7 in saline in quantities of […] at concentrations of 0.1–1 mg/mL delivered from plastic syringes through stainless steel 26 gauge needles.
The individual foci of infiltration were excised, fixed in 10% formalin, embedded in paraffin, and stained and examined by standard histopathological methods.
The controls received saline alone.
Rats were injected in the skin and subcutaneously as in Example 1 above, except they were injected with NTP peptide #14.
Tissues were excised, fixed in 10% formalin, embedded in paraffin, and stained and examined by standard histopathological methods.
The controls were the same as Example 1.

[3] = test system: normal rodent muscle tissue, subcutaneous connective tissue, and dermis; conditions: cited from earlier work
[4] = test system: human and non-human origin tumors, including mammary carcinoma, skin carcinoma and papilloma, colon carcinoma, glioma of brain; conditions: variety of human and non-human origin tumors in rodent models; cited from earlier work
[5] = test system: glioma and neuroblastoma cell cultures; conditions: cited from earlier work

Substance	effect on prostate tissue at sites of injection (histology) [1]	effect on tissue at sites of injection (histopathology) [2]	also measured
PASASPVAGITGM [NTP peptide #17, …; AD7c-NTP p31–43]	significant cell loss and atrophy in the prostate	–	–
WDYRRFIFNFL [NTP peptide #14, …; AD7c-NTP p241–245 + AD7c-NTP p197–202]	–	cell death and necrosis of tissue at the injection sites	–
AD7c-NTP protein: ˜41 kD membrane associated phosphoprotein, a neural thread protein; sequence in FIG. 1	–	–	causing cell death in vivo in normal tissue [3]: effective agent for causing cell death; causing cell death in vivo in tumors [4]: effective agent for causing cell death; causing cell death in vitro [5]: effective agent for causing cell death
LSLPSSWDYG [NTP peptide #7]	necrosis of tissue at the injection sites with loss of glandular epithelium, flattening and atrophy	necrosis of tissue at the injection sites	spread of necrosis beyond the site of injection ([2]; rat, in vivo, sc): did not appear to spread far beyond the site of injection
